Laboratory results published in patent US20240408064A1, “RAS INHIBITORS, COMPOSITIONS AND METHODS OF USE THEREOF” (GENETOLEAD INC., priority 2021, published 2024).

Columns and labels:
HRas^G12V [1] = target: T1, HRas^G12V (Homo sapiens (Human), UniProt P01112, G12V); assay: 19F T2-CPMG NMR score; type: binding
Procedure: (§1) All NMR experiments were collected using 3 mm NMR tubes on a 600 MHz Bruker Avance III spectrometer equipped with a QCI helium cryoprobe and a SampleJet sample changer. The buffer used for NMR experiments was 25 mM sodium phosphate pH 7.4, 150 mM NaCl, 5 mM MgCl2, 1 mM TCEP-d16, 10% D2O. Data were processed using Bruker TopSpin.
(§2) Since the fragment library was curated using phosphate buffer, 25 mM sodium phosphate pH 7.4, 150 mM NaCl, 5 mM MgCl2, 1 mM TCEP-d16, 10% D2O Fresh TCEP was used for experiments. Screening was performed using ^1H-decoupled 1D ^19F experiment Bruker experiment (zgfhigqn.2) with 64 scans and a relaxation delay of 5 seconds. 50 μM HRas^G12V and 240 μM of each fragment in pools (mixtures) were used.
(§3) Hit confirmation was performed using the same ^19F experiment as the screen. Ligand-observed 1D ^1H, protein-observed 1D ^1H, ^1H T2-CPMG as well as Saturation Transfer Difference (STD) experiments were also run on the same samples. Ligand-observed 1D ^1H was run using the standard Bruker sequence with excitation sculpting (zgesgp) with a relaxation delay of 10 seconds and 16 scans per spectrum. Protein-observed 1D ^1H was performed using the same sequence with a relaxation delay of 1 second and 256 scans in order to increase the signal-to-noise of the protein resonances, while keeping the experimental time relatively short. The ^1H T2-CPMG experiment employed a modified version of the Bruker 1D ^1H zgesgp experiment with the addition of a CPMG pulse train after the first 90° excitation pulse. Total duration for each spin echo was fixed at 1 ms (τ=500 μs), while the number of echoes in the pulse train was varied according to the total time (T). The number of scans for each spectrum was 4 and eight delay times were run on each sample, ranging from 1 ms to 800 ms.
Because of its power to probe the intrinsically weak interactions (Kd) between targets and low-molecular weight fragments, NMR fragment-based lead discovery (FBLD) is a very useful biophysical method in early stage drug discovery, especially for challenging target proteins; including those with shallow binding pockets. Since FBLD screens are performed using low-molecular weight compounds (fragments) with lower structural complexity, the same chemical space can be covered using a smaller number of drug-like fragments versus use of large libraries of higher-molecular weight lead-like compounds as in high throughput screening (HTS) campaigns. Therefore, FBLD has a much higher hit rate than HTS using only several hundred to several thousand compounds in comparison with approximately 1 million compounds for HTS. Also, the small size of the compounds screened in FBLD means a better chance to fully match the interactions with small or transient pockets within the target protein, where these less tractable pockets cannot be accessed with standard classical HTS methods. […] We expect this methodology to be more advantageous than classical HTS methods for expediting the time from hit to lead (H2L) and allows for rapid access to high quality leads with lower attrition rates in subsequent lead optimization (LO) campaigns toward pre-clinical candidate selection. FBLD screening by NMR involves a “consensus binding” approach where several distinct NMR experiments (DLB, STD, CPMG) are applied along with a free-state aggregation detection method (T2-CPMG) to rank the compounds for their affinity to the receptor (HRAS in this case) whilst simultaneously monitoring the solution behavior and critical quality attributes of each compound. The latter helps to eliminate artifact binders which are highly problematic. We performed a fluorine screen involving 461 compounds that were derived from a highly curated fragment library. Moreover, two-dimensional ^15N HSQC NMR was also used to validate ligand-binding sites on the target protein. […]

HRas^G12V [2] = target: T1, HRas^G12V; assay: 19F DLB (ligand-observed 19F NMR) score; type: binding; design: scale not given here
Procedure: as §1, §2
as §3, with “ms. […]” for “ms.”

T1 sequence (P01112 1-166 G12V): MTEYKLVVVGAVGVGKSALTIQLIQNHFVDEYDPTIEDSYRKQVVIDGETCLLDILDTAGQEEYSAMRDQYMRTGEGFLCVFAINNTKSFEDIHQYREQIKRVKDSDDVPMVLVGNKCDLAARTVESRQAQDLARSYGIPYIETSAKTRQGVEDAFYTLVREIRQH

Row | 19F T2-CPMG Score (HRas^G12V [1]) | 19F DLB Score (HRas^G12V [2]) | Structure (SMILES)
1 | 10.14 | 1.54 | CN1CCC(NC(=O)Cc2c[nH]c3cc(F)ccc23)C(C(=O)O)C1 (centres unmarked) [Compound 10117, 4-(2-(6-fluoro-1H-indol-3-yl)acetamido)-1-methylpiperidine-3-carboxylic acid]
2 | 13.94 | 2.34 | O=C(Cc1c[nH]c2cc(F)ccc12)N1CCCC(O)C1 (centres unmarked) [Compound 10120]
3 | 9.62 | 1.68 | O=C(Cc1c[nH]c2cc(F)ccc12)N1C[C@H]2CC[C@@H](C1)O2 [Compound 10122]
4 | 12.49 | 1.82 | COC(C)C1CN(C(=O)Cc2c[nH]c3cc(F)ccc23)C1 (centres unmarked) [Compound 10124, 2-(6-fluoro-1H-indol-3-yl)-1-(3-(1-methoxyethyl)azetidin-1-yl)ethan-1-one]
5 | 10.15 | 1.56 | O=C(O)[C@H]1CCCCN1C(=O)Cc1c[nH]c2cc(F)ccc12 [Compound 10125]
6 | 13.7 | 4.22 | CCOC(=O)[C@@H]1CCCCN1C(=O)Cc1c[nH]c2cc(F)ccc12 [Compound 10126]
7 | 13.67 | 2.85 | CCOC(=O)[C@H]1CCCCN1C(=O)Cc1c[nH]c2cc(F)ccc12 [Compound 10128]
8 | 3.92 | 1.27 | O=C(O)C1CCN(C(=O)Cc2c[nH]c3cc(F)ccc23)CC1 [Compound 10129]
9 | 12.1 | 2.09 | CCOC(=O)CC1CCN(C(=O)Cc2c[nH]c3cc(F)ccc23)CC1 [Compound 10130]
10 | 20.77 | 2.17 | CC(O)C1CN(C(=O)Cc2c[nH]c3cc(F)ccc23)C1 (centres unmarked) [Compound 10131, 2-(6-fluoro-1H-indol-3-yl)-1-(3-(1-hydroxyethyl)azetidin-1-yl)ethan-1-one]
11 | 13.29 | 2.01 | CCOC(=O)C1CCN(C(=O)Cc2c[nH]c3cc(F)ccc23)CC1 [Compound 10132]
12 | 13.32 | 2.1 | COCC1(C)CN(C(=O)Cc2c[nH]c3cc(F)ccc23)C1 [Compound 10134, 2-(6-fluoro-1H-indol-3-yl)-1-(3-(methoxymethyl)-3-methylazetidin-1-yl)ethan-1-one]
13 | 14.25 | 1.98 | CC(=O)C1CN(C(=O)Cc2c[nH]c3cc(F)ccc23)C1 [Compound 10138]
14 | 4.54 | 1.93 | CC(=O)N[C@H]1CCCN(C(=O)Cc2c[nH]c3cc(F)ccc23)C1 [Compound 10139, (S)—N-(1-(2-(6-fluoro-1H-indol-3-yl)acetyl)piperidin-3-yl) acetamide]
15 | 9.44 | 1.93 | CC1CN(C(=O)Cc2n[nH]c3cc(F)ccc23)C1 [Compound 10144, 2-(6-fluoro-1H-indazol-3-yl)-1-(3-methylazetidin-1-yl)ethan-1-one]
16 | 16.13 | 1.64 | O=C1CN(C(=O)Cc2c[nH]c3cc(F)ccc23)CCN1 [Compound 10145]
17 | 9.75 | 1.56 | CN1CCN(C(=O)Cc2c[nH]c3cc(F)ccc23)CC1=O [Compound 10146]
18 | 19.87 | 2.3 | O=C(Cc1c[nH]c2cc(F)ccc12)N1CCO[C@@H](CO)C1 [Compound 10147, (R)-2-(6-fluoro-1H-indol-3-yl)-1-(2-(hydroxymethyl)morpholino) ethan-1-one]
19 | 12.46 | 1.87 | O=C(Cc1c[nH]c2cc(F)ccc12)N1CCO[C@H](CO)C1 [Compound 10148]

Row | 19F T2-CPMG Score (HRas^G12V [1]) | 19F DLB Score (HRas^G12V [2]) | Structure (SMILES)
20 | 8.16 | 1.62 | COC[C@H]1CN(C(=O)Cc2c[nH]c3cc(F)ccc23)CCO1 [Compound 10154, (R)-2-(6-fluoro-1H-indol-3-yl)-1-(2-(methoxymethyl)morpholino)ethan-1-one]
21 | 7.87 | 2.07 | CCOC(=O)[C@@H]1CCCN(C(=O)Cc2c[nH]c3cc(F)ccc23)C1 [Compound 10161]
22 | 16.59 | 3.19 | CCC(C(=O)N1CC(C)C1)c1c[nH]c2cc(F)ccc12 (centres unmarked) [Compound 11005]
23 | 16.89 | 1.86 | CC(C)(C)OC(=O)N1CCC(C(=O)N2CCC(c3c[nH]c4cc(F)ccc34)CC2)C1 (centres unmarked) [Compound 11017]
24 | 9.96 | 2.51 | O=C(c1ccc(F)cc1F)N1CCC(c2c[nH]c3cc(F)ccc23)C1 (centres unmarked) [Compound 11018]
25 | 12.9 | 2.2 | O=C(C1CCC(O)CC1)N1CCC(c2c[nH]c3cc(F)ccc23)C1 (centres unmarked) [Compound 11019]
26 | 15.24 | 2.23 | CC(=O)Nc1cccc(C(=O)N2CCC(c3c[nH]c4cc(F)ccc34)CC2)c1 [Compound 11020]
27 | 39.09 | 3.35 | O=C(c1ccccc1)N1CCC(c2c[nH]c3cc(F)ccc23)C1 (centres unmarked) [Compound 11021]
28 | 5.71 | 3.43 | O=C(c1cccc(F)c1)N1CCC(c2c[nH]c3cc(F)ccc23)C1 (centres unmarked) [Compound 11022]
29 | 16.39 | 3.07 | CC(=O)Nc1cccc(C(=O)N2CCC(c3c[nH]c4cc(F)ccc34)C2)c1 (centres unmarked) [Compound 11023]
30 | 9.57 | 1.89 | CC(=O)N1CCC(C(=O)N2CCC(c3c[nH]c4cc(F)ccc34)C2)CC1 (centres unmarked) [Compound 11024]
31 | 13.23 | 2.48 | O=C(C1CCC(O)CC1)N1CCC(c2c[nH]c3cc(F)ccc23)CC1 (centres unmarked) [Compound 11027]
32 | 10.24 | 1.93 | CC(=O)N1CCC(C(=O)N2CCC(c3c[nH]c4cc(F)ccc34)CC2)CC1 [Compound 11029]
33 | 21.82 | 2.9 | CN(C)Cc1ccc(NC(=O)C(C#N)c2c[nH]c3cc(F)ccc23)cc1 (centres unmarked) [Compound 11030]
34 | 38.39 | 1.97 | N#CC(C(=O)N[C@@H](Cc1ccc(O)cc1)C(=O)O)c1c[nH]c2cc(F)ccc12 (some centres unmarked) [Compound 11031]
35 | 39.41 | 1.7 | CC1CN(C(=O)C(CC(=O)O)c2c[nH]c3cc(F)ccc23)C1 (centres unmarked) [Compound 11034]
36 | 19.33 | 1.76 | O=C(C1CCNC1)N1CCC(c2c[nH]c3cc(F)ccc23)C1 (centres unmarked) [Compound 11036]
37 | 16.77 | 2.12 | O=C(C1CCCNC1)N1CCC(c2c[nH]c3cc(F)ccc23)C1 (centres unmarked) [Compound 11037]
38 | 16.24 | 2.77 | O=C(O)CC(c1ccccc1F)c1c[nH]c2cc(F)ccc12 (centres unmarked) [Compound 11044]

Row | Structure (SMILES) | 19F T2-CPMG Score (HRas^G12V [1]) | 19F DLB Score (HRas^G12V [2])
39 | COC(=O)[C@@H]1CN(C)CCN1C(=O)Cc1c[nH]c2cc(F)ccc12 [Compound 10167] | 5.07 | 3.62
40 | Fc1ccc2c(C3CCNCC3)c[nH]c2c1 [Compound 11012] | 13.63 | 2.58
